Common to all, as to type: biochemical
Common to all, as to conditions: inhibitor at IC50 concentration previously determined for CK1δ WT; DMSO control = 100%; adjusted to WT = 50%; mean ± SD

The target in one assay is T1, CK1δ R115H (Homo sapiens, UniProt P48730, R115H).
T1 sequence (P48730 1-415 R115H): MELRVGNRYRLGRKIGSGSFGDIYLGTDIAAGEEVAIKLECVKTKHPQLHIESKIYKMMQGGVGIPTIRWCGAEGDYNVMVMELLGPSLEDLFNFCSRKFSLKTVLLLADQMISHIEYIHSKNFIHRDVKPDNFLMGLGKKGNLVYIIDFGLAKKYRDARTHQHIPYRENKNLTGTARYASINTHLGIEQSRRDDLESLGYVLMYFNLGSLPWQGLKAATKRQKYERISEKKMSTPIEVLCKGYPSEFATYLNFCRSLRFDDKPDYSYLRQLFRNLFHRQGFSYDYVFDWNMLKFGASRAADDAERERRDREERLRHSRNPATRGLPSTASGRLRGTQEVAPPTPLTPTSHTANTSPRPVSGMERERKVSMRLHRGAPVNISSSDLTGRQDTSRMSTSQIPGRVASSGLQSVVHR
Briefly: in vitro kinase assay, CK1δ mutant R115H. The procedure: (§1) Overexpression and purification of GST-CK1δ fusion proteins, either wild type or mutant, were performed as described previously.
(§2) Each kinase assay reaction was performed in kinase buffer (25 mM Tris-HCl (pH 7.5), 10 μM ATP, 10 mM MgCl2, 100 μM EDTA) in presence of purified GST-CK1δ kinase as source of enzyme (either wild type or mutant), an assay-specific substrate (α-casein, GST-p53^1−64, or GST-β-catenin^1−181), and radiolabeled ATP (2 μCi [γ-^32P]-ATP). For performing Michaelis–Menten analysis increasing substrate concentrations were used (α-casein: 0.39−25 μM; GST-p53^1−64: 0.09−1.87 μM; GST-β-catenin^1−181: 0.07−1.32 μM). For biological evaluation of small molecule inhibitors (SMIs), each inhibitor compound was either tested at 10 μM concentration for initial screening or by using a dilution series (0.005−10 µM) for determination of IC50 values. DMSO was used as control. Reactions were incubated for 30 min at 30 °C and reactions were stopped using 5x SDS-loading buffer (250 mM Tris-HCl [pH 6.8], 25% (v/v) β-mercaptoethanol (MSH), 50% (v/v) glycerol, 10% (w/v) SDS, 0.5% (w/v) bromphenol blue). Subsequently, samples were separated by SDS-PAGE using 12.5% acrylamide gels, stained with Coomassie, and phosphorylated substrates were visualized on X-ray film. Incorporation of radiolabeled phosphate was quantified by scintillation counting of Coomassie-stained substrate bands. Defined dilutions of the reaction master mix were counted as well in order to convert results obtained as counts per minute (CPM) to units of transferred phosphate in pmol/min. Michaelis–Menten analysis was performed using GraphPad Prism 6 (GraphPad Software, San Diego, CA, USA).

A further assay addresses T2, CK1δ R127Q (Homo sapiens, UniProt P48730, R127Q).
T2 sequence (P48730 1-415 R127Q): T1 sequence (P48730 1-415 R115H) with H115R, R127Q
The experiment in a line: in vitro kinase assay, CK1δ mutant R127Q. The procedure: as §1, §2

Another assay concerns the target T3, CK1δ Q399* (Homo sapiens, UniProt P48730).
T3 sequence (P48730 1-398): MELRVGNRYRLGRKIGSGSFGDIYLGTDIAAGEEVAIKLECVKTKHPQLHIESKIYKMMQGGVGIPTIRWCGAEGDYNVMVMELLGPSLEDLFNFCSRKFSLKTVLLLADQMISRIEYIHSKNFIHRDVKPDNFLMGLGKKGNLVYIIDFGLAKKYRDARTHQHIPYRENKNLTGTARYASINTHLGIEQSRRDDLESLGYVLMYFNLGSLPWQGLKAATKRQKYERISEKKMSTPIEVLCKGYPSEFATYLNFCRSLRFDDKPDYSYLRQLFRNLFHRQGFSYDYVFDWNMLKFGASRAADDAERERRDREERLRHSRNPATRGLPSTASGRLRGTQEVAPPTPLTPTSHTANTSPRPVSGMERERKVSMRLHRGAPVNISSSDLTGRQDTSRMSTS
Briefly: in vitro kinase assay, CK1δ mutant Q399*. How it is done: as §1, §2

For another assay, the target named is T4, CK1δ R299Q (Homo sapiens, UniProt P48730, R299Q).
T4 sequence (P48730 1-415 R299Q): T1 sequence (P48730 1-415 R115H) with H115R, R299Q
Briefly: in vitro kinase assay, CK1δ mutant R299Q. The procedure: as §1, §2

In another assay the target is T5, CK1δ R127L (Homo sapiens, UniProt P48730, R127L).
T5 sequence (P48730 1-415 R127L): T1 sequence (P48730 1-415 R115H) with H115R, R127L
Briefly: in vitro kinase assay, CK1δ mutant R127L. The procedure:
as §1, §2

Residue numbers refer to the chain shown, from its start.

With `O=C(Nc1nc2ccc(C(F)(F)F)cc2[nH]1)c1csc(NC(=O)c2ccccc2OC(F)(F)F)n1` [Bischof-5], the “Residual activity of CK1δ R115H” value at CK1δ R115H worked out at 36 ± 10%. For the same molecule, the “Residual activity of CK1δ R127Q” value on CK1δ R127Q came out at 24 ± 8%. Further, the “Residual activity of CK1δ Q399*” value on CK1δ Q399* is on record as 75 ± 30%. Also, at CK1δ R299Q, the “Residual activity of CK1δ R299Q” value turned out to be 64 ± 22%. For the same molecule, the “Residual activity of CK1δ R127L” value at CK1δ R127L was 50 ± 11%.

As for `Cc1ccc2nc(NC(=O)CSc3nc4c(c(=O)n3-c3ccccc3)SCC4)sc2c1` [IWP-2], at CK1δ R115H, the “Residual activity of CK1δ R115H” value amounted to 71 ± 34%. At CK1δ R127Q, the “Residual activity of CK1δ R127Q” value is reported as 37 ± 5%. Besides, at CK1δ Q399*, the “Residual activity of CK1δ Q399*” value worked out at 53 ± 27%. Moreover, the “Residual activity of CK1δ R299Q” value at CK1δ R299Q stood at 36 ± 20%. Besides, the “Residual activity of CK1δ R127L” value on CK1δ R127L was 42 ± 9%.

Turning to `COc1ccccc1-n1c(SCC(=O)Nc2nc3ccc(C)cc3s2)nc2c(c1=O)SCC2` [IWP-4], at CK1δ R115H, the “Residual activity of CK1δ R115H” value was found to be 46 ± 5%. Moreover, the “Residual activity of CK1δ R127Q” value at CK1δ R127Q was 36 ± 11%. Further, at CK1δ Q399*, the “Residual activity of CK1δ Q399*” value turned out to be 96 ± 79%. Also, the “Residual activity of CK1δ R299Q” value at CK1δ R299Q came out at 91 ± 60%. Besides, the “Residual activity of CK1δ R127L” value on CK1δ R127L is 48 ± 10%.

Values taken from article PMC6941124 (International Journal of Molecular Sciences, 2019).
